Molecules are shown by their SMILES. Some results are limits rather than exact numbers.

Recombinant human HSD17B13 enzyme, sequence (Q7Z5P4 20-300): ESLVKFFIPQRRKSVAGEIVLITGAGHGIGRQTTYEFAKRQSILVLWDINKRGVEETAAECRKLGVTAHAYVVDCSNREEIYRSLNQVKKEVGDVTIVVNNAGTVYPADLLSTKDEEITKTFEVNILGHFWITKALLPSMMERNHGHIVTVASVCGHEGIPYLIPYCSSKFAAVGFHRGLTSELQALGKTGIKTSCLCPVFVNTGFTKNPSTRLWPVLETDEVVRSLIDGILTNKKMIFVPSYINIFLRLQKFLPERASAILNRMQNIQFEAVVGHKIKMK

For the first assay, the target named is Recombinant human HSD17B13 enzyme (Homo sapiens (Human), UniProt Q7Z5P4). Description: HSD17b13 NAD(P)H-Glo Biochemical Assay. The following applies: 50 uM estradiol, 1 mM NAD+; read-out: HSD17β13 IC50. In a few lines:
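Luminescent NAD(P)H-Glo detection (1 h, RT) quantified cofactor reduction after a 3 h, 37° C reaction of human HSD17B13 with estradiol (50 uM final) and NAD+ (1 mM final). Compounds were first pre-incubated 20 min at RT with enzyme in Tris pH 7.4 buffer containing Tween-20 and BSA.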
On to `COc1ccc(Nc2ccc3c(cnn3-c3ccc(F)c(O)c3)c2)cc1Cl` [Compound 22, 5-(5-((3-Chloro-4-methoxyphenyl)amino)-1H-indazol-1-yl)-2-fluorophenol], for which the IC50 was 100 to 1000 nM.

As to `Oc1cc(-n2ncc3cc(Nc4ccc(O)c(Cl)c4)ccc32)ccc1F` [Compound 23, 2-Chloro-4-((1-(4-fluoro-3-hydroxyphenyl)-1H-indazol-5-yl)amino)phenol], the half-inhibitory concentration (IC50) is 100 to 1000 nM.

For the molecule `CC(=O)N1CCC(Oc2ccc3c(cnn3-c3cc(O)c(F)c(F)c3)c2)CC1` [Compound 24, 1-(4-((1-(3,4-Difluoro-5-hydroxyphenyl)-1H-indazol-5-yl)oxy)piperidin-1-yl)ethan-1-one], the IC50 was 1000 to 30000 nM.

For `CC(=O)N1CC(Oc2ccc3c(cnn3-c3cc(O)c(F)c(F)c3)c2)C1` [Compound 24.01, 1-(3-((1-(3,4-Difluoro-5-hydroxyphenyl)-1H-indazol-5-yl)oxy)azetidin-1-yl)ethan-1-one], the 50% inhibitory concentration (IC50) lay within 100 to 1000 nM.

Turning to `CS(=O)(=O)N1CC(Oc2ccc3c(cnn3-c3cc(O)c(F)c(F)c3)c2)C1` [Compound 25, 2,3-Difluoro-5-(5-((1-(methylsulfonyl)azetidin-3-yl)oxy)-1H-indazol-1-yl)phenol], the IC50 was 100 to 1000 nM.

`CS(=O)(=O)N1CCC(Oc2ccc3c(cnn3-c3cc(O)c(F)c(F)c3)c2)CC1` [Compound 25.01, 2,3-Difluoro-5-(5-((1-(methyl-sulfonyl)piperidin-4-yl)oxy)-1H-indazol-1-yl)phenol]: the IC50 is 1000 to 30000 nM.

For the molecule `CC(=O)N1CCC(c2ccc3c(cnn3-c3ccc(F)c(O)c3)c2)CC1` [Compound 26, 1-(4-(1-(4-Fluoro-3-hydroxyphenyl)-1H-indazol-5-yl)piperidin-1-yl)ethan-1-one], the IC50 is 1000 to 30000 nM.

For `CS(=O)(=O)N1CCC(c2ccc3c(cnn3-c3ccc(F)c(O)c3)c2)CC1` [Compound 26.01, 2-Fluoro-5-(5-(1-(methyl-sulfonyl)piperidin-4-yl)-1H-indazol-1-yl)phenol], the concentration for half-maximal inhibition (IC50) lay in the range of 1000 to 30000 nM.

With `CNC(=O)N1CCC(c2ccc3c(cnn3-c3ccc(F)c(O)c3)c2)CC1` [Compound 26.02, 4-(1-(4-Fluoro-3-hydroxy-phenyl)-1H-indazol-5-yl)-N-methylpiperidine-1-carboxamide], the half-maximal inhibitory concentration (IC50) lay in the range of 100 to 1000 nM.

On to `CS(=O)(=O)N1CCC(c2ccc3c(cnn3-c3cc(O)c(F)c(F)c3)c2)CC1` [Compound 27, 2,3-Difluoro-5-(5-(1-(methylsulfonyl)piperidin-4-yl)-1H-indazol-1-yl)phenol], for which the concentration for half-maximal inhibition (IC50) was < 100 nM.

On to `CS(=O)(=O)N1CCC(c2cc3cnn(-c4cc(O)c(F)c(F)c4)c3cc2Cl)CC1` [Compound 27.01, 5-(6-Chloro-5-(1-(methyl-sulfonyl)piperidin-4-yl)-1H-indazol-1-yl)-2,3-difluoro-phenol], for which the IC50 was 1000 to 30000 nM.

With `CS(=O)(=O)N1CCC(CO)(c2ccc3c(cnn3-c3cc(O)c(F)c(F)c3)c2)CC1` [Compound 28.01], the IC50 lay within 1000 to 30000 nM.

With `COCC1(c2ccc3c(cnn3-c3cc(O)c(F)c(F)c3)c2)CCN(S(C)(=O)=O)CC1` [Compound 28.02, 2,3-Difluoro-5-(5-(4-(meth-oxymethyl)-1-(methylsul-fonyl)piperidin-4-yl)-1H-indazol-1-yl)phenol], the IC50 fell in the range of 100 to 1000 nM.

On to `CC1(c2ccc3c(cnn3-c3cc(O)c(F)c(F)c3)c2)CCN(S(C)(=O)=O)CC1` [Compound 28.03, 2,3-Difluoro-5-(5-(4-methyl-1-(methylsulfonyl)piperidin-4-yl)-1H-indazol-1-yl)phenol], for which the IC50 lay in the range of 1000 to 30000 nM.

As to `CS(=O)(=O)N1CCC(C#N)(c2ccc3c(cnn3-c3cc(O)c(F)c(F)c3)c2)CC1` [Compound 28.04, 4-(1-(3,4-Difluoro-5-hydroxy-phenyl)-1H-indazol-5-yl)-1-(methylsulfonyl)piperidine-4-carbonitrile], the 50% inhibitory concentration (IC50) fell in the range of 1000 to 30000 nM.

In the case of `Cc1cc(O)c(F)c(-n2ncc3cc(N4CCN(S(C)(=O)=O)CC4)ccc32)c1` [Compound 28.05, 2-Fluoro-5-methyl-3-(5-(4-(methylsulfonyl)piperazin-1-yl)-1H-indazol-1-yl)phenol], the IC50 was 1000 to 30000 nM.

For `CS(=O)(=O)N1CCN(c2ccc3c(cnn3-c3nccc(O)c3F)c2)CC1` [Compound 28.06, 3-Fluoro-2-(5-(4-(methyl-sulfonyl)piperazin-1-yl)-1H-indazol-1-yl)pyridin-4-ol], the IC50 was 1000 to 30000 nM.

As for `CS(=O)(=O)N1CCN(c2ccc3c(cnn3-c3cc(O)cc(C(F)(F)F)c3)c2)CC1` [Compound 28.07, 3-(5-(4-(Methylsulfonyl)-piperazin-1-yl)-1H-indazol-1-yl)-5-(trifluoromethyl)phenol], the IC50 fell in the range of 100 to 1000 nM.

For `CS(=O)(=O)N1CCN(c2cc3cnn(-c4cc(O)c(F)c(C(F)(F)F)c4)c3nn2)CC1` [Compound 28.08, 2-Fluoro-5-(5-(4-(methyl-sulfonyl)piperazin-1-yl)-1H-pyrazolo[3,4-c]pyridazin-1-yl)-3-(trifluoromethyl)phenol], the 50% inhibitory concentration (IC50) lay within 1000 to 30000 nM.

Regarding `CNC(=O)C1(c2ccc3c(cnn3-c3cc(O)c(F)c(F)c3)c2)CCN(S(C)(=O)=O)CC1` [Compound 29, 4-(1-(3,4-Difluoro-5-hydroxyphenyl)-1H-indazol-5-yl)-N-methyl-1-(methylsulfonyl)piperidine-4-carboxamide], the IC50 was 1000 to 30000 nM.

Consider `O=S(=O)(c1ccc2c(cnn2-c2cc(O)c(F)c(F)c2)c1)N1CCCCC1` [Compound 30, 2,3-Difluoro-5-(5-(piperidin-1-ylsulfonyl)-1H-indazol-1-yl)phenol], for which the half-maximal inhibitory concentration (IC50) is 1000 to 30000 nM.

With `O=S(=O)(c1ccc2c(cnn2-c2cc(O)c(F)c(F)c2)c1)N1CCOCC1` [Compound 30.01, 2,3-Difluoro-5-(5-(morpholinosulfonyl)-1H-indazol-1-yl)phenol], the IC50 lay in the range of 100 to 1000 nM.

As to `CS(=O)(=O)N1CCN(c2ccc3c(cnn3-c3cc(C(F)(F)F)cc(O)n3)c2)CC1` [Compound 31, 6-(5-(4-(Methylsulfonyl)piperazin-1-yl)-1H-indazol-1-yl)-4-(trifluoromethyl)pyridin-2-ol], the IC50 lay within 100 to 1000 nM.

`CS(=O)(=O)N1CCN(c2ccc3nn(-c4cc(C(F)(F)F)cc(O)n4)cc3c2)CC1` [Compound 31.01, 6-(5-(4-(Methylsulfonyl)-piperazin-1-yl)-2H-indazol-2-yl)-4-(trifluoromethyl)-pyridin-2-ol]: the IC50 lay within 1000 to 30000 nM.

Consider `CS(=O)(=O)N1CCN(c2ccc3c(cnn3-c3cc(O)cc(C(F)(F)F)n3)c2)CC1` [Compound 31.02, 2-(5-(4-(Methylsulfonyl)-piperazin-1-yl)-1H-indazol-1-yl)-6-(trifluoromethyl)-pyridin-4-ol], for which the IC50 was in the range of 1000 to 30000 nM.

With `CS(=O)(=O)N1CCN(c2ccc3nn(-c4cc(O)cc(C(F)(F)F)n4)cc3c2)CC1` [Compound 31.03, 2-(5-(4-(Methylsulfonyl)-piperazin-1-yl)-2H-indazol-2-yl)-6-(trifluoromethyl)-pyridin-4-ol], the IC50 lay within 1000 to 30000 nM.

Staying with this assay, now noted: read-out: HSD17β13 inhibition at 10 uM.
For `CN(C)C(=O)C1(c2ccc3c(cnn3-c3cc(O)c(F)c(F)c3)c2)CCN(S(C)(=O)=O)CC1` [Compound 29.01, 4-(1-(3,4-Difluoro-5-hydroxy-phenyl)-1H-indazol-5-yl)-N,N-dimethyl-1-(methyl-sulfonyl)piperidine-4-carbox-amide], the inhibition at 10 µM is < 20%.

The assay is the same for the next values; noted with them: read-out: HSD17β13 inhibition at 30 uM.
For `CS(=O)(=O)N1CCC(C(=O)O)(c2ccc3c(cnn3-c3cc(O)c(F)c(F)c3)c2)CC1` [Compound 28, 4-(1-(3,4-Difluoro-5-hydroxyphenyl)-1H-indazol-5-yl)-1-(methylsulfonyl)piperidine-4-carboxylic Acid], the inhibition at 30 µM came out at 49%.

The values above are taken from patent publication US20240034736A1, “HSD17B13 INHIBITORS AND USES THEREOF” (FL2022-001, Inc., priority 2020, published 2024).
